Results on seven compounds are retold here after US9404142B2, “Screening methods for identifying Plasmodium proteases inhibitors” (Institut Pasteur, priority 2010, dated 2016).

Assay [1] has as its target recombinant PvSUB1 (Plasmodium vivax, UniProt E6Y8B9). Put plainly: FRET-based PvSUB1 enzymatic assay, Ki determination. The class given is biochemical. As to conditions: Dabsyl Edans substrate; mean of at least three independent experiments ± SEM. The procedure: FIG. 2B depicts the FRET-based specific enzymatic assay which was used. In this particular case the assay consists in measuring fluorescence of tagged peptidic substrate of SUB1. An uncleaved peptide has low intensity emission whereas, when the peptide is cleaved by SUB1, high intensity emissions are measured. […] Molecules where thus tested and their Ki (inhibition constant) was determined on the PvSUB1 recombinant enzyme. FIG. 2C provides determination of the Ki of the AG6, AG1 and BH5 compounds for the recombinant PvSUB1 enzyme with the Dabsyl Edans substrate. Ten different concentrations, ranging from 300 μM to 585 nM following sequential 1:2 dilutions, of the compounds were tested using the PvSUB1 enzymatic assay. The final mixture was distributed in duplicate into a 384-well black microtiter plate (Thermo Scientific) and the fluorescence was monitored. The slope of the linear part of the kinetic was determined in an Excel™ (Microsoft) spreadsheet. The Ki and EC50 values expressed in μM were determined using GraphPad Prism™ software. […]
For the kinetic assays we used the recombinant PvSUB1/PfSUB1 enzymes and specific peptide substrates whose sequence are deduced from the auto-maturation site of each one: KLVGADDVSLA (SEQ ID NO: 9), which cleavage occurs between the two aspartates for PvSUB1 and KLVSADNIDIS (SEQ ID NO: 11) which is cleaved between the aspartate and the asparagine for PfSUB1. […] The final mixture was distributed in duplicate into a 384-well black microtiter plate (Thermo Scientific) and the fluorescence was monitored every 3 minutes for 90 min at 37° C. in a Labsystems Fluoroskan Ascent™ spectrofluorometer or a Tecan Infinite M1000™ spectrofluorometer using the excitation and emission wavelengths of […] or 620/680 nm for the Dabsyl/Edans or DYQ660/DY630 substrates respectively. The slope of the linear part of the kinetic was determined in an Excel™ (Microsoft) spreadsheet. Every steps of the enzymatic assay were done on ice to make sure that the protein was not active before the measure of the fluorescence. […]

For assay [2], the system named is P. falciparum 3D7 strain. Put plainly: In vitro drug susceptibility assay on P. falciparum culture, clone 3D7. The format is cell-based. As to conditions: Plasmodium falciparum. The procedure: FIG. 2B depicts the FRET-based specific enzymatic assay which was used. In this particular case the assay consists in measuring fluorescence of tagged peptidic substrate of SUB1. […] Molecules where thus tested and their Ki (inhibition constant) was determined on the PvSUB1 recombinant enzyme. FIG. 2C provides determination of the Ki of the AG6, AG1 and BH5 compounds for the recombinant PvSUB1 enzyme with the Dabsyl Edans substrate. […] The final mixture was distributed in duplicate into a 384-well black microtiter plate (Thermo Scientific) and the fluorescence was monitored. The slope of the linear part of the kinetic was determined in an Excel™ (Microsoft) spreadsheet. The Ki and EC50 values expressed in μM were determined using GraphPad Prism™ software.
Parasites were incubated at 37° C. in an atmosphere composed of 5% O2, 5% CO2 and 90% N2. […] IC50/EC50 have been determined following nonlinear regression analysis using HN-NonLin V1.1 software (malaria.farch.net).

The subject of assay [3] is P. falciparum Dd2 strain. As to the kind of experiment: In vitro drug susceptibility assay on P. falciparum culture, clone Dd2. As to conditions: Plasmodium falciparum, DD2, read-out: IC50 on P. falciparum Dd2 strain. The class given is cell-based.
Assay [4] has as its system P. falciparum (3D7 clone) segmented schizonts. Put plainly: Merozoite egress/invasion, flow cytometry (YOYO-1) on segmented schizonts. The format is cell-based, Plasmodium falciparum. As to conditions: 90 μM, 12 hr, serum-containing medium. The procedure:
Next, the selected SUB1 inhibitors were evaluated biologically for their impact on P. falciparum 3D7 stage-specific ex vivo culture. […] In vitro synchronized culture of P. falciparum composed of 0.5% of segmented schizonts (To) was cultivated for 12 hr in serum-free medium in the absence (T12) or presence of DMSO (0.9% v/v) (lane DMSO). Lanes A/G1, A/G6, B/H5 correspond to parasites incubated with 90 μM of corresponding compounds. Lanes E64 and RBC correspond to parasites cultured in presence of E64 (10 μM) and uninfected erythrocytes respectively. Parasite extracts and culture supernatants were analyzed by western blot with mAb 24C6.1F1. […] Segmented schizonts (starting material, To) were cultivated for 12 hr in serum-containing medium and their transition to newly formed trophozoites-stages in presence of 0.9% DMSO (DMSO) was analysed by flow cytometry using YOYO1 Facs technique (Li et al, Cytometry, 71A, 297-307, 2007). […]
A synchronised culture composed of segmented schizonts of P. falciparum (3D7 clone) at 0.5% parasitemia and 1% hematocrit is performed in a 24 wells plate. […] The progress of the parasitaemia from segmented schizont to newly formed trophozoites was assessed by flow cytometry after staining samples by the DNA-binding fluorescent dye, YOYO-1™, as previously described by Li and colleagues [2007, Cytometry A 71: 297-307.] with some modifications. […]
A general note: A flow cytometer gives signals particle by particle.

The test system of assay [5] is SERA5 maturation by SUB1. As to the kind of experiment: Inhibition of maturation of SERA5 (western blot) in synchronized P. falciparum culture. The format is cell-based, Plasmodium falciparum. As to conditions: compounds 90 μM, E64 10 μM; 12 hr, serum-free medium; western blot mAb 24C6.1F1. The procedure:
Next, the selected SUB1 inhibitors were evaluated biologically for their impact on P. falciparum 3D7 stage-specific ex vivo culture. […] In vitro synchronized culture of P. falciparum composed of 0.5% of segmented schizonts (To) was cultivated for 12 hr in serum-free medium in the absence (T12) or presence of DMSO (0.9% v/v) (lane DMSO). Lanes A/G1, A/G6, B/H5 correspond to parasites incubated with 90 μM of corresponding compounds. Lanes E64 and RBC correspond to parasites cultured in presence of E64 (10 μM) and uninfected erythrocytes respectively. Parasite extracts and culture supernatants were analyzed by western blot with mAb 24C6.1F1. SERA5 126 kDa precursor and its processed forms of 73, 56 and 50 kDa are indicated. […] Segmented schizonts (starting material, To) were cultivated for 12 hr in serum-containing medium and their transition to newly formed trophozoites-stages in presence of 0.9% DMSO (DMSO) was analysed by flow cytometry using YOYO1 Facs technique (Li et al, Cytometry, 71A, 297-307, 2007). Gates were selected to exclude uninfected erythrocytes and converted to two-dimensional plots illustrating the consequence of the presence of tested compounds on the arrest of schizogony. All compounds were tested at 90 μM, except E64 tested at 10 μM.
(In general: In western blotting, separated proteins are transferred to a membrane and probed.)

Assay [6] concerns the target PfSUB1 Dabsyl Edans substrate (Plasmodium falciparum).
The target of assay [7] is PvSUB1 Dabsyl Edans substrate (Plasmodium vivax).
[8] abbreviates: chloroquino-sensitive clone 3D7, mean ± SEM, read-out: IC50 on P. falciparum 3D7 strain.

Like-named read-outs stand apart in the source and are kept apart here.

One may read the Ki as the dissociation constant of the complex between target and ligand, obtained from inhibition or displacement. For orientation: IC50 means the midpoint of a concentration-inhibition curve. `O=C(C[n+]1cccc(C(=O)Nc2ccccc2)c1)c1ccc(NC(=O)c2ccccc2)cc1` [A/G1]: the Ki in assay [1] amounted to 5.5 ± 2.4 µM. Further, the values for the half-inhibitory concentration (IC50) in assay [2] (setting [8]) and in assay [3] were 4.7 ± 1.8 µM and 3.5 ± 1.7 µM, respectively. Further, in assay [4], the “Arrest of schizogony / merozoite egress” value is listed as “able to maintain the parasites to the schizonts stage”.
For the compound `COc1cccc(C2c3c(-c4ccc(F)cc4)n[nH]c3C(=O)N2c2ccccc2)c1` (stereo not shown) [A/G6], the inhibition constant (Ki) in assay [1] was 8.2 ± 1.9 µM. Further, the results for the half-inhibitory concentration (IC50) in assay [2] (setting [8]) and in assay [3] were 17.7 ± 1.7 µM and 14.8 ± 6.7 µM, respectively. In addition, in assay [4], the “Arrest of schizogony / merozoite egress” value was “able to maintain the parasites to the schizonts stage”.
On to `O=C(Cn1ncc2c3ccccc3n(Cc3cccc(Cl)c3)c2c1=O)N1CCc2ccccc21` [B/H5], for which the Ki in assay [1] came to 1.4 ± 1 µM. Further, the IC50 amounted to 16.9 ± 3.3 µM in assay [2] (setting [8]) and 13 ± 8.1 µM in assay [3].
For the compound `CC(C)C[C@H](NC(=O)[C@H]1O[C@@H]1C(=O)O)C(=O)NCCCCN=C(N)N` [Compound E64], the “Maturation of SERA5 by SUB1 successive cleavages” value in assay [5] is “inactive”.
For `CCN(CC)CCCC(C)Nc1ccnc2cc(Cl)ccc12` (stereo not shown) [chloroquine, reference compound], the IC50 in assay [2] (3D7, read-out: IC50 on P. falciparum 3D7 strain) is 0.0043 ± 0.0013 µg/mL; in assay [3] it was 0.0355 ± 0.0137 µg/mL.
Take “recombinant Plasmodium falciparum SUB1 (PfSUB1) (enzyme)”: the apparent Km, FRET-based cleavage assay in assay [6] was determined as 30.2 µM.
As for “recombinant enzymatically active form of Plasmodium vivax SUB1-Belem (PvSUB1-Belem) (enzyme)”, the apparent Km, FRET-based cleavage assay in assay [7] worked out at 19.7 µM.
